From EP1296703B1, “NON-ANTIBACTERIAL TETRACYCLINE AS ANTI-FUNGAL AGENTS” (Liu, Yu, priority 2000, dated 2001)

What was measured:
[1] = test system: Penicillium sp. (laboratory isolate); test: SABHI agar plate growth inhibition screen; type: cell-based; conditions: for Growth at 25 µg/ml compared to control at 24 hrs incubation / Growth at 25µg/ml compared to control at 48 hours: Penicillium Sp., 30°C, growth grade; for Activity against Penicillium sp. (Example 1): 25 µg/ml SABHI agar
Experimental: (§1) The following fungi were inoculated onto potato dextrose agar (PDA) from stock cultures and incubated aerobically at 30°C: Aspergillus [NT] 1022, Penicillium sp. (laboratory isolate), Candida albicans, ATCC 14053, and Rhizopus sp. […] Candida albicans was suspended in saline and adjusted to 0.5 MacFarland in a similar manner. These suspensions were diluted 1:100 in sterile 0.9% saline. SABHI Agar (Difco) pH 7.0 was prepared in 100ml amounts and sterilized at 121°C for 15 min. […] The plates were then incubated aerobically for 24 hour and for 48 hours at 30°C.

[2] = test system: Candida albicans, ATCC 14053; test: SABHI agar plate growth inhibition screen; type: cell-based; conditions: for Activity against Candida albicans (Example 1): 25 µg/ml SABHI agar; for Growth at 25 µg/ml compared to control at 24 hrs incubation / Growth at 25µg/ml compared to control at 48 hours: Candida Albicans, 30°C, growth grade
Experimental: as §1

Rhizopus sp. = test: SABHI agar plate growth inhibition screen; type: cell-based; conditions: for Growth at 25 µg/ml compared to control at 24 hrs incubation / Growth at 25µg/ml compared to control at 48 hours: Rhizopus sp., 30°C, growth grade
Experimental: as §1

[3] = test system: Aspergillus fumigatus ATCC 1022; test: SABHI agar plate growth inhibition screen; type: cell-based; conditions: for Growth at 25 µg/ml compared to control at 24 hrs incubation / Growth at 25µg/ml compared to control at 48 hours: Aspergillus Fumigatus, 30°C, growth grade; for Activity against Aspergillus fumigatus (Example 1): 25 µg/ml SABHI agar
Experimental: as §1

[4] = Blood levels after oral gavage; parameters: species or system adult rats; conditions: rat, in vivo
Source text: In the treatment of certain localized conditions, the degree of hydrophilicity of the CMT can be of lesser importance. […].

[5] = Solubility in aqueous systems; type: physicochemical
Toxicity in vivo = conditions: 2.0 µg/ml concentration
[6] = Testing in cancer patients (side effects); type: in vivo

SMILES | Growth at 25 µg/ml compared to control at 24 hrs incubation [1] | Growth at 25µg/ml compared to control at 48 hours [1] | Activity against Candida albicans (Example 1) [2] | Growth at 25 µg/ml compared to control at 24 hrs incubation [2] | Growth at 25µg/ml compared to control at 48 hours [2] | Growth at 25 µg/ml compared to control at 24 hrs incubation (Rhizopus sp.) | Growth at 25µg/ml compared to control at 48 hours (Rhizopus sp.) | Growth at 25 µg/ml compared to control at 24 hrs incubation [3] | Growth at 25µg/ml compared to control at 48 hours [3] | Blood levels [4] | Solubility in aqueous systems [5] | Activity against Penicillium sp. (Example 1) [1] | Activity against Rhizopus sp. (Example 1) (Rhizopus sp.; 25 µg/ml SABHI agar) | Activity against Aspergillus fumigatus (Example 1) [3] | Toxicity in vivo (Toxicity in vivo) | Side effects [6]
CC1(O)c2cccc(O)c2C(=O)C2=C(O)C3C(=O)C(C(N)=O)=C(O)CC3CC21 (stereo not drawn) [CMT-7, 4-de(dimethylamino)-12α-deoxytetracycline] | 3 (25% reduction in growth of colonies compared to control.) | 4 (Level of growth in the absence of anti-fungal agent (control).) | strong activity | 0 (complete inhibition of growth.) | 0 (complete inhibition of growth.) | 4 (Level of growth in the absence of anti-fungal agent (control).) | 3 (25% reduction in growth of colonies compared to control.) | 0 (complete inhibition of growth.) | 4 (Level of growth in the absence of anti-fungal agent (control).) |  |  |  |  |  |  | 
CN(C)C1C(=O)C(C#N)=C(O)C2(O)C(=O)C3=C(O)c4c(O)cccc4C(C)(O)C3CC12 (stereo not drawn) [CMT-2, tetracyclinonitrile] |  |  |  |  |  |  |  |  |  | no detectable blood levels | low solubility in aqueous systems |  |  |  |  | 
O=C(NCN1CCNCC1)C1=C(O)C[C@@H]2C[C@@H]3Cc4cccc(O)c4C(=O)C3=C(O)[C@]2(O)C1=O [CMT-315] | 0 (complete inhibition of growth.) | 0 (complete inhibition of growth.) | activity against all the fungi tested | 0 (complete inhibition of growth.) | 0 (complete inhibition of growth.) | 1 (75% reduction in growth in colonies compared to control.) | 1 (75% reduction in growth in colonies compared to control.) | 0 (complete inhibition of growth.) | 0 (complete inhibition of growth.) |  |  | activity against all the fungi tested | activity against all the fungi tested | activity against all the fungi tested |  | 
NC(=O)C1=C(O)C[C@@H]2C[C@@H]3Cc4ccc(N)c(O)c4C(=O)C3=C(O)[C@]2(O)C1=O [CMT-308] | 0 (complete inhibition of growth.) | 0 (complete inhibition of growth.) |  | 4 (Level of growth in the absence of anti-fungal agent (control).) | 4 (Level of growth in the absence of anti-fungal agent (control).) | 4 (Level of growth in the absence of anti-fungal agent (control).) | 4 (Level of growth in the absence of anti-fungal agent (control).) | 0 (complete inhibition of growth.) | 1 (75% reduction in growth in colonies compared to control.) |  |  | demonstrated activity |  | demonstrated activity |  | 
NC(=O)C1=C(O)C[C@@H]2C[C@@H]3Cc4cccc(O)c4C(=O)C3=C(O)[C@]2(O)C1=O [CMT-3, 6-demethyl-6-deoxy-4-de(dimethylamino)tetracycline] |  |  |  |  |  |  |  |  |  |  |  |  |  |  | very little toxicity | without evidence of side effects, except at unusually high doses
CC1(O)c2c(Cl)ccc(O)c2C(=O)C2=C(O)C3(O)C(=O)C(C(N)=O)=C(O)CC3CC21 (stereo not drawn) [CMT-4, 7-chloro-4-de(dimethylamino)tetracycline] | 3 (25% reduction in growth of colonies compared to control.) | 0 (complete inhibition of growth.) |  | 1 (75% reduction in growth in colonies compared to control.) | 4 (Level of growth in the absence of anti-fungal agent (control).) | 4 (Level of growth in the absence of anti-fungal agent (control).) | 4 (Level of growth in the absence of anti-fungal agent (control).) | 0 (complete inhibition of growth.) | 1 (75% reduction in growth in colonies compared to control.) |  |  | demonstrated activity |  | demonstrated activity |  | 
